Test results published in ChEMBL document CHEMBL1153274, “Microwave-assisted synthesis of N-substituted cyclic imides and their evaluation for anticancer and anti-inflammatory activities” (2009).

Columns and labels:
Type in all cases: functional
[1] = system: HEp-2; assay: Cytotoxicity against human Hep2 cells after 48 hrs by SRB assay
[2] = system: SK-N-SH; assay: Cytotoxicity against human SK-N-SH cells after 48 hrs by SRB assay
[3] = system: SW-620; assay: Cytotoxicity against human SW620 cells after 48 hrs by SRB assay
[4] = system: Rattus norvegicus; assay: Antiinflammatory activity against carrageenan-induced paw edema in albino rat at 50 mg/kg, po administered 30 mins before carrageenan challenge measured after 1 to 3 hrs
[5] = system: COLO 205; assay: Cytotoxicity against human COLO205 cells after 48 hrs by SRB assay
[6] = system: Rattus norvegicus; assay: Antiinflammatory activity against carrageenan-induced paw edema in albino rat at 25 mg/kg, po administered 30 mins before carrageenan challenge measured after 1 to 3 hrs
[7] = system: Rattus norvegicus; assay: Antiinflammatory activity against carrageenan-induced paw edema in albino rat at 100 mg/kg, po administered 30 mins before carrageenan challenge measured after 1 to 3 hrs

Structure (SMILES) | growth inhibition (GI) [1] [%] | growth inhibition (GI) [2] [%] | growth inhibition (GI) [3] [%] | Activity [4] [%] | growth inhibition (GI) [5] [%] | Activity [6] [%] | Activity [7] [%]
O=C1Cc2ccccc2CC(=O)N1CCN1CCCCC1 | 15 | 0 | 45 | 21 | 0 |  | 
O=C1Cc2ccccc2CC(=O)N1Cc1ccccn1 | 11 | 0 | 37 | 32 | 0 |  | 
O=C1c2nc[nH]c2C(=O)N1Cc1ccccn1 | 17 | 11 | 33 | 24 | 6 |  | 
O=C1c2nccnc2C(=O)N1Cc1ccncc1 | 11 | 0 | 36 | 32 | 1 |  | 
O=C1c2nccnc2C(=O)N1CCN1CCCCC1 | 12 | 10 | 9 | 16 | 2 |  | 
O=C1c2nc[nH]c2C(=O)N1Cc1cccs1 | 15 | 2 | 23 | 32 | 3 |  | 
O=C1c2nc[nH]c2C(=O)N1CCN1CCCCC1 | 18 | 22 | 17 | 0 | 10 |  | 
O=C1c2nccnc2C(=O)N1Cc1ccco1 | 11 | 15 | 12 | 0 | 7 |  | 
O=C1c2ccncc2C(=O)N1Cc1ccco1 | 8 | 0 | 45 | 24 | 0 |  | 
CO[C@@]12[C@H](COC(N)=O)C3=C(C(=O)C(C)=C(N)C3=O)N1C[C@@H]1N[C@@H]12 [MITOMYCIN] | 60 | 85 | 29 |  | 41 |  | 
O=C1c2nccnc2C(=O)N1Cc1cccs1 | 16 | 12 | 46 | 31 | 7 |  | 
O=C1Cc2ccccc2CC(=O)N1Cc1ccco1 | 17 | 11 | 17 | 22 | 10 |  | 
O=C1c2ccncc2C(=O)N1Cc1ccncc1 | 12 | 9 | 20 | 33 | 12 |  | 
O=C1Cc2ccccc2CC(=O)N1Cc1cccnc1 | 6 | 0 | 22 | 40 | 0 | 19 | 67
O=C1c2ccncc2C(=O)N1Cc1ccccn1 | 24 | 10 | 33 | 27 | 4 |  | 
O=C1c2nc[nH]c2C(=O)N1Cc1ccncc1 | 26 | 1 | 43 | 21 | 3 |  | 
O=C1c2ccncc2C(=O)N1Cc1cccs1 | 24 | 12 | 53 | 35 | 4 |  | 
O=c1[nH]cc(F)c(=O)[nH]1 [FLUOROURACIL] | 40 | 56 | 44 |  | 25 |  | 
CCCCC1C(=O)N(c2ccccc2)N(c2ccccc2)C1=O [PHENYLBUTAZONE] |  |  |  | 37 |  | 17 | 63
O=C1Cc2ccccc2CC(=O)N1Cc1cccs1 | 19 | 1 | 52 | 34 | 4 |  | 
O=C1c2ccncc2C(=O)N1CCN1CCCCC1 | 13 | 13 | 0 | 12 | 1 |  | 
O=C1c2nccnc2C(=O)N1Cc1ccccn1 | 16 | 11 | 33 | 29 | 6 |  | 
